target: T1, KRAS G12C 1-169, his-tagged protein, GDP-loaded (Homo sapiens, UniProt P01116, G12C); experiment: Covalent binding (% modification) to KRAS G12C by mass spectrometry; conditions: covalent binding to KRAS G12C after a ten minute incubation period; further: test concentration or dose not given here
T1 construct: KRAS G12C 1-169, his-tagged protein, GDP-loaded

| SMILES | Binding % |
| --- | --- |
| C=CC(=O)N1C[C@@H](C)N(c2nc(N)nc3c(F)c(-c4c(C)ccc5cn[nH]c45)c(Cl)cc23)[C@@H](C)C1 [Compound 31, 1-((3S,5R)-4-(2-amino-6-chloro-8-fluoro-7-(6-methyl-1H-indazol-7-yl)quinazolin-4-yl)-3,5-dimethyl-piperazin-1-yl) prop-2-en-1-one] | ++ (++ indicates binding activity from 50 to 90%) |
| C=CC(=O)N1CCN(c2nc(OCCN3CC(F)(F)C3)nc3c(F)c(-c4c(O)cccc4F)c(Cl)cc23)C[C@H]1C [Compound 57, 1-((2R)-4-(6-chloro-2-(2-(3,3-difluoroazetidin-1-yl)ethoxy)-8-fluoro-7-(2-fluoro-6-hydroxyphenyl)quinazolin-4-yl)-2-methyl-piperazin-1-yl) prop-2-en-1-one] | +++ (+++ indicates binding activity greater than 90%) |
| C=CC(=O)N1C[C@H](C)N(c2nc(OC3CCN(C(C)C)CC3)nc3c(F)c(-c4c(C)ccc5[nH]ncc45)c(Cl)cc23)C[C@H]1C [Compound 79, 1-((2R,5S)-4-(6-chloro-8-fluoro-2-((1-isopropyl-piperidin-4-yl)oxy)-7-(5-methyl-1H-indazol-4-yl)quinazolin-4-yl)-2,5-dimethyl-piperazin-1-yl) prop-2-en-1-one] | +++ (+++ indicates binding activity greater than 90%) |
| C=CC(=O)N1[C@H](C)CN(c2nc(OCCN(CC)CC)nc3c(F)c(-c4c(O)cccc4F)c(Cl)cc23)C[C@@H]1C [Compound 29, 1-((2R,6S)-4-(6-chloro-2-(2-(diethylamino)ethoxy)-8-fluoro-7-(2-fluoro-6-hydroxyphenyl)quinazolin-4-yl)-2,6-dimethyl-piperazin-1-yl) prop-2-en-1-one] | ++ (++ indicates binding activity from 50 to 90%) |
| C=CC(=O)N1C[C@H](C)N(c2nc(O)nc3c(F)c(-c4c(O)cccc4F)c(Cl)cc23)C[C@H]1C [Compound 51, 1-((2R,5S)-4-(6-chloro-8-fluoro-7-(2-fluoro-6-hydroxyphenyl)-2-hydroxy-quinazolin-4-yl)-2,5-dimethyl-piperazin-1-yl) prop-2-en-1-one] | + (+ indicates binding activity up to 50%) |
| C=CC(=O)N1C[C@@H](C)N(c2nc(OCCN(CC)CC)nc3c(F)c(-c4c(O)cccc4F)c(Cl)cc23)[C@@H](C)C1 [Compound 16, 1-((3S,5R)-4-(6-chloro-2-(2-(diethylamino)ethoxy)-8-fluoro-7-(2-fluoro-6-hydroxyphenyl)quinazolin-4-yl)-3,5-dimethylpiperazin-1-yl)prop-2-en-1-one] | ++ (++ indicates binding activity from 50 to 90%) |
| C=CC(=O)N1C[C@H](C)N(c2nc(NC3CCN(C4CC4)CC3)nc3c(F)c(-c4c(C)ccc5[nH]ncc45)c(Cl)cc23)C[C@H]1C [Compound 50, 1-((2R,5S)-4-(6-chloro-2-((1-cyclopropyl-piperidin-4-yl)amino)-8-fluoro-7-(5-methyl-1H-indazol-4-yl)quinazolin-4-yl)-2,5-dimethyl-piperazin-1-yl) prop-2-en-1-one] | ++ (++ indicates binding activity from 50 to 90%) |

same assay, conditions: covalent binding to KRAS G12C after a three minute incubation period

| SMILES | Binding % |
| --- | --- |
| C=CC(=O)N1C[C@H](C)N(c2nc(N3CC(N)C3)nc3c(F)c(-c4c(C)ccc5[nH]ncc45)c(Cl)cc23)C[C@H]1C [Compound 165, 1-((2R,5S)-4-(2-(3-aminoazetidin-1-yl)-6-chloro-8-fluoro-7-(5-methyl-1H-indazol-4-yl)quinazolin-4-yl)-2,5-dimethyl-piperazin-1-yl) prop-2-en-1-one] | ++ (++ indicates binding activity from 50 to 90%) |
| C=CC(=O)N1CCN(c2nc(OCCN(CC)CC)nc3c(F)c(-c4c(O)cccc4F)c(Cl)cc23)C[C@H]1C [Compound 85, 1-((2R)-4-(6-chloro-2-(2-(diethylamino)ethoxy)-8-fluoro-7-(2-fluoro-6-hydroxyphenyl)quinazolin-4-yl)-2-methyl-piperazin-1-yl) prop-2-en-1-one] | ++ (++ indicates binding activity from 50 to 90%) |
| C=CC(=O)N1C[C@H](C)N(c2nc(N3CC4(CCN(C5CC5)C4)C3)nc3c(F)c(-c4c(C)ccc5[nH]ncc45)c(Cl)cc23)C[C@H]1C [Compound 140, 1-((2R,5S)-4-(6-chloro-2-(6-cyclopropyl-2,6-diazaspiro[3.4]octan-2-yl)-8-fluoro-7-(5-methyl-1H-indazol-4-yl)quinazolin-4-yl)-2,5-dimethyl-piperazin-1-yl) prop-2-en-1-one] | ++ (++ indicates binding activity from 50 to 90%) |
| C=CC(=O)N1C[C@H](C)N(c2nc(OCCN3CC(F)(F)C3)nc3c(F)c(-c4cc(O)cc5ccccc45)c(Cl)cc23)C[C@H]1C [Compound 169, 1-((2R,5S)-4-(6-chloro-2-(2-(3,3-difluoroazetidin-1-yl)ethoxy)-8-fluoro-7-(3-hydroxynaphthalen-1-yl)quinazolin-4-yl)-2,5-dimethyl-piperazin-1-yl) prop-2-en-1-one] | ++ (++ indicates binding activity from 50 to 90%) |
| C=CC(=O)N1C[C@H](C)N(c2nc(N3CC(N(C)CC)C3)nc3c(F)c(-c4c(C)ccc5cn[nH]c45)c(Cl)cc23)C[C@H]1C [Compound 118, 1-((2R,5S)-4-(6-chloro-2-(3-(ethyl(methyl)amino)azetidin-1-yl)-8-fluoro-7-(6-methyl-1H-indazol-7-yl)quinazolin-4-yl)-2,5-dimethyl-piperazin-1-yl) prop-2-en-1-one] | + (+ indicates binding activity greater than 0% and up to 50%) |
| C=CC(=O)N1C[C@H](C)N(c2nc(OCCCN(CC)CC)nc3c(F)c(-c4c(O)cccc4F)c(Cl)cc23)C[C@H]1C [Compound 158, 1-((2R,5S)-4-(6-chloro-2-(3-(diethylamino)propoxy)-8-fluoro-7-(2-fluoro-6-hydroxyphenyl)quinazolin-4-yl)-2,5-dimethyl-piperazin-1-yl) prop-2-en-1-one] | +++ (+++ indicates binding activity greater than 90%) |
| C=CC(=O)N1C[C@H](C)N(c2nc(N3CC4(CCO4)C3)nc3c(F)c(-c4c(C)ccc5[nH]ncc45)c(Cl)cc23)C[C@H]1C [Compound 193, 1-((2R,5S)-4-(6-chloro-8-fluoro-7-(5-methyl-1H-indazol-4-yl)-2-(1-oxa-6-azaspiro[3.3]heptan-6-yl)quinazolin-4-yl)-2,5-dimethyl-piperazin-1-yl) prop-2-en-1-one] | ++ (++ indicates binding activity from 50 to 90%) |
| C=CC(=O)N1C[C@H](C)N(c2nc(COCc3ncccc3F)nc3c(F)c(-c4c(C)ccc5[nH]ncc45)c(Cl)cc23)C[C@H]1C [Compound 142, 1-((2R,5S)-4-(6-chloro-8-fluoro-2-(((3-fluoro-pyridin-2-yl)methoxy)methyl)-7-(5-methyl-1H-indazol-4-yl)quinazolin-4-yl)-2,5-dimethyl-piperazin-1-yl) prop-2-en-1-one] | ++ (++ indicates binding activity from 50 to 90%) |
| C=CC(=O)N1CCN(c2nc(N3CC(N(CC)CC)C3)nc3c(F)c(-c4c(C)ccc5[nH]ncc45)c(Cl)cc23)C[C@H]1C [Compound 166, 1-((2R)-4-(6-chloro-2-(3-(diethylamino)azetidin-1-yl)-8-fluoro-7-(5-methyl-1H-indazol-4-yl)quinazolin-4-yl)-2-methyl-piperazin-1-yl) prop-2-en-1-one] | ++ (++ indicates binding activity from 50 to 90%) |

Source: patent US10646488B2 (Araxes Pharma LLC, priority 2016, dated 2020)
